Patent EP0354714A2, “Pharmaceutical compositions containing polyaromatic compounds” (HADASSAH MEDICAL ORGANIZATION, priority 1988, dated 1990)

Tests used:
[1] = PTT in rats after oral administration; assay type: in vivo; conditions: 1 ml of 10%-20% solution, after 2-4 hours, around 20 sec. at time 0
Excerpt: Moreover, since aluminon can be absorbed through the gastrointestinal tract, it can be used as an orally administratable anticoagulant (as opposed to heparin which has to be given by injection).

[2] = test system: Bovine aortal smooth-muscle cells; test: 3H thymidine incorporation in smooth muscle cells (resting, FGF- or thrombin-stimulated); assay type: cell-based; conditions: for H³ thymidine incorporation per well (cpm. mean of duplicates) +FGF: FGF 250 ngr/ml, without aluminon 22,574; for H³ thymidine incorporation per well (cpm. mean of duplicates) +FGF / H³ thymidine incorporation per well (cpm. mean of duplicates) Control / H³ thymidine incorporation per well (cpm. mean of duplicates) +Thrombin: 2 days; for H³ thymidine incorporation per well (cpm. mean of duplicates) Control: resting cells, without aluminon 9.823; for H³ thymidine incorporation per well (cpm. mean of duplicates) +Thrombin: thrombin 10⁻⁶M, without aluminon 54,000
Experimental: Bovine aortal smooth-muscle cells were grown in tissue culture plates in the presence of glucose-rich medium (H-21). The cultures (around 35x10³ cells/well in 24 wells' plates) were initially supplemented with 10% fetal calf serum (FCS) for 2-3 days. The cell nutrition was then replaced by a serum-deprived medium (H-21 plus 0.2% FCS) in order to test the effect of defined growth factors on the proliferation of smooth-muscle cells and their possible inhibition by the compounds with heparin-like activity.
In the following representative experiment, the cells transferred to the serum-deprived medium were grown in the presence of thrombin (10⁻⁶M) or FGF (partially purified from bovine brain, 250 ngr/ml). Various concentrations of aluminon were added to the thrombin or FGF-treated cells and to non-treated control cultures. ³H thymidine was also added to all wells for an incubation period of 2 days. The cultures were then harvested and the ³H thymidine incorporated into DNA was measured.

[3] = biological target: T1, ESb mouse lymphoma heparanase (Mus musculus, UniProt Q6YGZ1); test: Inhibition of heparanase degradation of 35S-labelled ECM; assay type: biochemical; conditions: 10 µgr/ml, 24 hours; for Total low-mol-wt. HS fragments released by heparanase (cpm): control 17,756 cpm
T1 construct: endogenous in cells; host or cells: ESb mouse lymphoma cells
T1 sequence (Q6YGZ1 150-535 limits assumed): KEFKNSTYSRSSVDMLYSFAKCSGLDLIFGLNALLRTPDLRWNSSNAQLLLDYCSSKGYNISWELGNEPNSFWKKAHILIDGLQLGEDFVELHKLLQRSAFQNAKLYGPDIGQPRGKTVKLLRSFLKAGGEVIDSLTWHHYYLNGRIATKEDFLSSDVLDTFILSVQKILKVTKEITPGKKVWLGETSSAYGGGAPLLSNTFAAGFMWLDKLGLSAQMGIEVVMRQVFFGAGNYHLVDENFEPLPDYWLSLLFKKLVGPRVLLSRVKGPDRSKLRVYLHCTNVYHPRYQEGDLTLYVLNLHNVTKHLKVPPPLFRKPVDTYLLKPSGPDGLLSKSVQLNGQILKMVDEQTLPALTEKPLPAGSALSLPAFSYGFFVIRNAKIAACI
T1 sequence (Q6YGZ1 28-101 limits assumed): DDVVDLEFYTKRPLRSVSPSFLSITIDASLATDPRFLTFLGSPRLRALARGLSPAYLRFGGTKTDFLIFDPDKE
Experimental: The ability of several of the above mentioned compounds to inhibit lymphoma-cell derived heparanse was tested in the assay system described by Vlodavsky et al. (Cancer Research. 43: 2704-2711 (1983). ³⁵S labled ECM was incubated for 24 hours with ESb mouse lymphoma heparanase in the presence of 10 ugr ml of the indicated compounds. Degradation of the sulfated glycosaminoglycan was followed by gel filtration of the supernatants. Heparanase activity is expressed as the total amount of labled low-molecular-weight fragments released from the ECM substrate. The results are summarized in Table III. Table III

normal pooled plasma = test: Activated partial thromboplastin time (APTT) in normal pooled plasma; assay type: biochemical; conditions: Concentration 0.2 mg/mL; normal pooled plasma alone 25 - 28 sec.
Experimental: Measurement of Activated Partial Thromboplastin Time (APTT)
Utilizing the following procedure, the activated partial thromboplastin time (APTT) was measured for each of comparative compounds A-D:
To an assay cuvette was added 100 ul of normal pooled plasma (George King Biomedical Inc., Kansas) and 100 ul of a solution containing one of the above compounds in aqueous 50 mM Tris hydrochloride at pH 7.5 (0.2 mg of sample in one mL buffer). The sample was placed in a MLA coagulation timer which automatically maintained the sample at 37°C for 2.5 minutes, injected 100 ul of actin activated cephaloplastin reagent, kept 5 minutes, injected 100 ul of 3 mM CaCl, and the clot formation was determined photometrically and the time recorded.

[4] = Minimum concentration that significantly prolongs APTT versus standard buffer solution; assay type: biochemical; conditions: concentration at which the polymeric components of the dye significantly prolonged APTT versus standard buffer solution
lipoprotein lipase (LPL) = biological target: T2, lipoprotein lipase (LPL) (Rattus norvegicus, UniProt Q06000); test: LPL activity in cultured heart cells and their medium after 24 hrs incubation; assay type: cell-based; conditions: heart cells; for LPL activity: Total: control 3237; for LPL activity: Medium / LPL activity: Cells: mean±SEM of triplicates; for LPL activity: Medium: control 817±14; for LPL activity: Cells: control 2420±93
T2 construct: endogenous in cells; host or cells: F1 heart cell cultures from newborn rat hearts (mainly non-beating mesenchymal cells)
T2 sequence (Q06000 28-474): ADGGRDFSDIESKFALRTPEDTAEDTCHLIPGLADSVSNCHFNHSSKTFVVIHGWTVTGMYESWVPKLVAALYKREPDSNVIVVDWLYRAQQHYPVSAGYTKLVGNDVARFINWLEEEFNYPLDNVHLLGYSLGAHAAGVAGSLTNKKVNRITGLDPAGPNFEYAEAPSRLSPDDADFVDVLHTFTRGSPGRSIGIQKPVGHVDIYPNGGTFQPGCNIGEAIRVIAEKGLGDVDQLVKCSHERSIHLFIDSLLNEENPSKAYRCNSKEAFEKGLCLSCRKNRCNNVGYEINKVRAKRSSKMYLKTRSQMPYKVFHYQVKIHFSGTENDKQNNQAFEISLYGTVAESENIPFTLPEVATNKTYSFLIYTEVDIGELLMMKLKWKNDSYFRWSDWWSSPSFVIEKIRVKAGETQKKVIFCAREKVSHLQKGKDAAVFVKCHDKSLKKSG
Experimental: The enzyme LPL participate in the process of lipid transfer from the bloodstream to the tissues, LPL is bound to the external surface of cells via its association with cell-membrane glycosaminoglycans. Cultured heart cells is a powerful system in the study of the enzyme turn-over and the exploration of ways to manipulate its level since these cells are active in the biosynthesis of LPL, in addition to the surface binding of the enzyme.
F₁ heart cell cultures were prepared from newborn rat hearts as previously described (Chajek, T. et al., Biochem. Biophys. Acta 528, 456-474 (1978)). They consisted mainly of non-beating mesenchymal cells and were used 8-12 days after their isolation.
The enzyme activity was determined on aliquots of medium and of homogenates of cells which had been released from the petri dish with a rubber policeman in 1 ml of 0.025 M NH₃/NH₄Cl buffer (pH 8.1) containing 1 unit/ml of heparin. The assay system consisted of 0.1 ml of medium or 0.1 ml of cell homogenate ([…]) and 0.1 ml of substrate containing labeled triolein, prepared according to the method of Nilsson-Ehle and Schotz, (J. Lipid Res. 17, 536-541 (1976)). Incubations were carried out at 37°C for 45 min. The reaction was stopped by the addition of methanol/chloroform/heptane (1.4:1.25:1.v/v) and the extraction of fatty acids was performed according to the method of Belfrage and Vaughan (J. Lipid Res. 10, 341-344 (1969), as modified by Nilsson-Ehle and Schotz. Enzyme activity was calculated according to the formula of Nilsson-Ehle and Schotz.

Molecule: O=C(O)C1=CC(=C(c2ccc(O)c(C(=O)O)c2)c2ccc(O)c(C(=O)O)c2)C=CC1=O [Aluminon, aurintricarboxylic acid]
- PTT [1]: > 200 s
- H³ thymidine incorporation per well (cpm. mean of duplicates) +FGF ([2]; Aluminon 0.2 µgr/ml): 22,256 cpm
- H³ thymidine incorporation per well (cpm. mean of duplicates) Control ([2]; Aluminon 0.2 µgr/ml): 8,425 cpm
- H³ thymidine incorporation per well (cpm. mean of duplicates) +Thrombin ([2]; Aluminon 0.2 µgr/ml): 46,857 cpm
- H³ thymidine incorporation per well (cpm. mean of duplicates) +FGF ([2]; Aluminon 2 µgr/ml): 13,089 cpm
- H³ thymidine incorporation per well (cpm. mean of duplicates) Control ([2]; Aluminon 2 µgr/ml): 5,120 cpm
- H³ thymidine incorporation per well (cpm. mean of duplicates) +Thrombin ([2]; Aluminon 2 µgr/ml): 14,064 cpm
- H³ thymidine incorporation per well (cpm. mean of duplicates) +FGF ([2]; Aluminon 10 µgr/ml): 6,846 cpm
- H³ thymidine incorporation per well (cpm. mean of duplicates) Control ([2]; Aluminon 10 µgr/ml): 4,105 cpm
- H³ thymidine incorporation per well (cpm. mean of duplicates) +Thrombin ([2]; Aluminon 10 µgr/ml): 6,877 cpm
- H³ thymidine incorporation per well (cpm. mean of duplicates) +FGF ([2]; Aluminon 20 µgr/ml): 6,745 cpm
- H³ thymidine incorporation per well (cpm. mean of duplicates) Control ([2]; Aluminon 20 µgr/ml): 4,343 cpm
- H³ thymidine incorporation per well (cpm. mean of duplicates) +Thrombin ([2]; Aluminon 20 µgr/ml): 5,705 cpm
- inhibition ([2]; aluminon concentration of 2 µgr/ml (∼4x10⁻⁶M)): More than 40%
- % Inhibition [3]: 78%

Molecule: O=C(O)C1=CC(=C(c2ccc(O)c(C(=O)O)c2)c2ccc(O)c(C(=O)O)c2)C=CC1=O [Comparative Compound C]
- APTT (normal pooled plasma): 28 s

Molecule: CN(C)c1ccc(C(=C2C=CC(=[N+](C)C)C=C2)c2ccc(N(C)C)cc2)cc1 [Crystal Violet]
- Minimum Final Concentration [4]: 8.3 µg/mL

Molecule: CCN(CC)c1ccc(C(=C2C=CC(=[N+](CC)CC)C=C2)c2ccc(N(CC)CC)cc2)cc1.[Cl-] [Ethyl Violet]
- Minimum Final Concentration [4]: 50.0 µg/mL

Molecule: Cc1cc(-c2ccc(/N=N/c3ccc4c(S(=O)(=O)[O-])cc(S(=O)(=O)[O-])c(N)c4c3O)c(C)c2)ccc1/N=N/c1ccc2c(S(=O)(=O)[O-])cc(S(=O)(=O)[O-])c(N)c2c1O.[Na+].[Na+].[Na+].[Na+] [Evan's Blue]
- % increase in the total (lipoprotein lipase (LPL); Evan's Blue 10⁻³ M): +139.4%
- LPL activity: Total (lipoprotein lipase (LPL); Evan's Blue 10⁻³ M): 7749 m mole FFA/h/dish
- LPL activity: Medium (lipoprotein lipase (LPL); Evan's Blue 10⁻³ M): 6051±435 m mole FFA/h/dish
- LPL activity: Cells (lipoprotein lipase (LPL); Evan's Blue 10⁻³ M): 1698±184 m mole FFA/h/dish
- % increase in the total (lipoprotein lipase (LPL); Evan's Blue 10⁻⁴ M): +61.6%
- LPL activity: Total (lipoprotein lipase (LPL); Evan's Blue 10⁻⁴ M): 5230 m mole FFA/h/dish
- LPL activity: Medium (lipoprotein lipase (LPL); Evan's Blue 10⁻⁴ M): 2783±194 m mole FFA/h/dish
- LPL activity: Cells (lipoprotein lipase (LPL); Evan's Blue 10⁻⁴ M): 2447±48 m mole FFA/h/dish
- % increase in the total (lipoprotein lipase (LPL); Evan's Blue 10⁻⁵ M): +32.5%
- LPL activity: Total (lipoprotein lipase (LPL); Evan's Blue 10⁻⁵ M): 4288 m mole FFA/h/dish
- LPL activity: Medium (lipoprotein lipase (LPL); Evan's Blue 10⁻⁵ M): 1531±182 m mole FFA/h/dish
- LPL activity: Cells (lipoprotein lipase (LPL); Evan's Blue 10⁻⁵ M): 2757±114 m mole FFA/h/dish
- % Inhibition [3]: 60%
- Total low-mol-wt. HS fragments released by heparanase (cpm) [3]: 6,986 cpm

Molecule: CCN(Cc1cccc(S(=O)(=O)O)c1)c1ccc(C(=C2C=CC(=[N+](CC)Cc3cccc(S(=O)(=O)O)c3)C=C2)c2ccc(O)cc2S(=O)(=O)[O-])cc1 [Fast Green]
- % Inhibition [3]: 32%
- Total low-mol-wt. HS fragments released by heparanase (cpm) [3]: 12,139 cpm

Molecule: CN(C)c1ccc(C(=C2C=CC(=[N+](C)C)C=C2)c2ccccc2)cc1 [Malachite Green]
- Minimum Final Concentration [4]: 150.0 µg/mL

Molecule: O=S(=O)(O)c1ccc(N=C2C=CC(=C(c3ccc(Nc4ccc(S(=O)(=O)O)cc4)cc3)c3ccc(Nc4ccc(S(=O)(=O)O)cc4)cc3)C=C2)cc1 [Methyl Blue]
- Minimum Final Concentration [4]: 100.0 µg/mL
- % Inhibition [3]: 23%
- Total low-mol-wt. HS fragments released by heparanase (cpm) [3]: 13,676 cpm

Molecule: CN(C)c1ccc(C(=C2C=CC(=[N+](C)C)C=C2)c2ccc([N+](C)(C)C)cc2)cc1.[Cl-].[Cl-] [Methyl Green]
- Minimum Final Concentration [4]: 50.0 µg/mL

Molecule: Cc1cc(C(=C2C=CC(=N)C=C2)c2ccc(N)cc2)ccc1N [Rosaniline Chloride]
- Minimum Final Concentration [4]: 12.5 µg/mL

Molecule: Cc1cc2nc3cc(C)c(N)cc3[n+](-c3ccccc3)c2cc1N.[Cl-] [Safranin O]
- Minimum Final Concentration [4]: 150.0 µg/mL

Molecule: Aniline Blue
- Minimum Final Concentration [4]: 150.0 µg/mL

Molecule: Basic Fuchsin
- Minimum Final Concentration [4]: 50.0 µg/mL

Molecule: Brilliant Cresyl Blue
- Minimum Final Concentration [4]: 150.0 µg/mL

Molecule: Methyl Violet
- Minimum Final Concentration [4]: 75.0 µg/mL
